Data as given in publication PMC6723808, “New Benzofuranoids and Phenylpropanoids from the Mangrove Endophytic Fungus, Aspergillus sp. ZJ-68” (Marine Drugs, 2019).
≈ marks a conversion by molar mass, not a printed value.

Key:
Assay in all cases: Antibacterial assay, MIC by continuous dilution method in 96-well plates
[1] = test system: P. aeruginosa (ATCC 27853); format: cell-based; settings: Pseudomonas aeruginosa, ATCC27853, read-out: MIC (μg/mL) P. aeruginosa
Description: (§1) Two Gram-positive bacteria B. subtilis (ATCC 6633) and S. aureus (ATCC 25923), and two Gram-negative bacteria E. coli (ATCC 25922) and P. aeruginosa (ATCC 27853) were used. The antibacterial assay and the determination of the MIC were assessed according to continuous dilution method in 96-well plates which has been described in our published paper. The tested substances were dissolved in DMSO and ciprofloxacin was the positive control.

E. coli (ATCC 25922) = format: cell-based, Escherichia coli; settings: for MIC: Escherichia coli, ATCC25922, E. coli ATCC 25922, read-out: MIC (μg/mL) E. coli
Description: as §1

B. subtilis (ATCC 6633) = format: cell-based, Bacillus subtilis; settings: for MIC: Bacillus subtilis, ATCC6633, B. subtilis ATCC 6633, read-out: MIC (μg/mL) B. subtilis
Description: as §1

S. aureus (ATCC 25923) = format: cell-based, Staphylococcus aureus; settings: for MIC: Staphylococcus aureus, ATCC25923, S. aureus ATCC 25923, read-out: MIC (μg/mL) S. aureus
Description: as §1

MIC [1] [µg/mL] | MIC (E. coli (ATCC 25922)) [µg/mL] | MIC (B. subtilis (ATCC 6633)) [µg/mL] | MIC (S. aureus (ATCC 25923)) [µg/mL] | MIC (μg/mL) E. coli (E. coli (ATCC 25922); E. coli ATCC 25922) [µg/mL] | MIC (μg/mL) B. subtilis (B. subtilis (ATCC 6633); B. subtilis ATCC 6633) [µg/mL] | MIC (μg/mL) S. aureus (S. aureus (ATCC 25923); S. aureus ATCC 25923) [µg/mL] | SMILES
> 100 |  |  |  |  |  |  | CCCc1ccc2c(c1CO)O[C@@H](C(C)(C)O)C2 [Compound 11, (−)-brassicadiol]
> 100 | 4.15 to 12.5 (≈ 25 to 75.2 µM) | 4.15 to 12.5 (≈ 25 to 75.2 µM) | 4.15 to 12.5 (≈ 25 to 75.2 µM) | 8.3 ± 1.0 (≈ 49.9 µM) | 8.3 ± 1.1 (≈ 49.9 µM) | 4.15 ± 1.12 (≈ 25 µM) | CCCc1cccc(O)c1CO [Compound 8, 2-(hydroxymethyl)-3-propylphenol]
> 100 | > 100 | > 100 | > 100 |  |  |  | CCCc1ccc(O)c(O)c1CO [Compound 6, Asperpanoid A]

The remaining lines, values behind:

SMILES | MIC [1] [µg/mL] | MIC (E. coli (ATCC 25922)) [µg/mL] | MIC (B. subtilis (ATCC 6633)) [µg/mL] | MIC (S. aureus (ATCC 25923)) [µg/mL] | MIC (μg/mL) E. coli (E. coli (ATCC 25922); E. coli ATCC 25922) [µg/mL] | MIC (μg/mL) B. subtilis (B. subtilis (ATCC 6633); B. subtilis ATCC 6633) [µg/mL] | MIC (μg/mL) S. aureus (S. aureus (ATCC 25923); S. aureus ATCC 25923) [µg/mL]
CC(C)=C1Oc2c(ccc(CC(C)O)c2CO)C1=O (stereo not drawn) [Compound 14, ustusorane A] | > 100 | > 100 | > 100 | > 100 |  |  | 
CC(C)=C1Oc2c(ccc3c2[C@@H](O)O[C@H](C)C3)C1=O [Compound 12, (+)-pseudodeflectusin] | > 100 | > 100 | > 100 | > 100 |  |  | 
O=C(O)c1cn(C2CC2)c2cc(N3CCNCC3)c(F)cc2c1=O [ciprofloxacin, reference compound] | 2.5 ± 1.2 (≈ 7.54 µM) | 1.25 ± 1.12 (≈ 3.77 µM) | 2.5 ± 1.1 (≈ 7.54 µM) | 1.25 ± 1.1 (≈ 3.77 µM) |  |  | 
